Laboratory results as given in PMC11750672, “The in vivo metabolic pathway of Deg-AZM and in vitro investigations into the contribution of drug metabolizing enzymes and drug transporters in the drug interactions of Deg-AZM, a clinical-stage new transgelin agonist” (Frontiers in Pharmacology, 2025).

Key:
P-gp [1] = molecular target: T1, P-gp (Homo sapiens, UniProt P08183); test: Bidirectional transport in Caco-2 cell monolayer with P-gp inhibitor quinidine; type: in vitro ADME; conditions: ER > 2, reduced after quinidine
T1 construct: evaluated using Caco-2 cell monolayer both apical-to-basolateral (A-B) and basolateral-to-apical (B-A) directions; endogenous in cells; host or cells: Caco-2
T1 sequence (P08183 whole entry): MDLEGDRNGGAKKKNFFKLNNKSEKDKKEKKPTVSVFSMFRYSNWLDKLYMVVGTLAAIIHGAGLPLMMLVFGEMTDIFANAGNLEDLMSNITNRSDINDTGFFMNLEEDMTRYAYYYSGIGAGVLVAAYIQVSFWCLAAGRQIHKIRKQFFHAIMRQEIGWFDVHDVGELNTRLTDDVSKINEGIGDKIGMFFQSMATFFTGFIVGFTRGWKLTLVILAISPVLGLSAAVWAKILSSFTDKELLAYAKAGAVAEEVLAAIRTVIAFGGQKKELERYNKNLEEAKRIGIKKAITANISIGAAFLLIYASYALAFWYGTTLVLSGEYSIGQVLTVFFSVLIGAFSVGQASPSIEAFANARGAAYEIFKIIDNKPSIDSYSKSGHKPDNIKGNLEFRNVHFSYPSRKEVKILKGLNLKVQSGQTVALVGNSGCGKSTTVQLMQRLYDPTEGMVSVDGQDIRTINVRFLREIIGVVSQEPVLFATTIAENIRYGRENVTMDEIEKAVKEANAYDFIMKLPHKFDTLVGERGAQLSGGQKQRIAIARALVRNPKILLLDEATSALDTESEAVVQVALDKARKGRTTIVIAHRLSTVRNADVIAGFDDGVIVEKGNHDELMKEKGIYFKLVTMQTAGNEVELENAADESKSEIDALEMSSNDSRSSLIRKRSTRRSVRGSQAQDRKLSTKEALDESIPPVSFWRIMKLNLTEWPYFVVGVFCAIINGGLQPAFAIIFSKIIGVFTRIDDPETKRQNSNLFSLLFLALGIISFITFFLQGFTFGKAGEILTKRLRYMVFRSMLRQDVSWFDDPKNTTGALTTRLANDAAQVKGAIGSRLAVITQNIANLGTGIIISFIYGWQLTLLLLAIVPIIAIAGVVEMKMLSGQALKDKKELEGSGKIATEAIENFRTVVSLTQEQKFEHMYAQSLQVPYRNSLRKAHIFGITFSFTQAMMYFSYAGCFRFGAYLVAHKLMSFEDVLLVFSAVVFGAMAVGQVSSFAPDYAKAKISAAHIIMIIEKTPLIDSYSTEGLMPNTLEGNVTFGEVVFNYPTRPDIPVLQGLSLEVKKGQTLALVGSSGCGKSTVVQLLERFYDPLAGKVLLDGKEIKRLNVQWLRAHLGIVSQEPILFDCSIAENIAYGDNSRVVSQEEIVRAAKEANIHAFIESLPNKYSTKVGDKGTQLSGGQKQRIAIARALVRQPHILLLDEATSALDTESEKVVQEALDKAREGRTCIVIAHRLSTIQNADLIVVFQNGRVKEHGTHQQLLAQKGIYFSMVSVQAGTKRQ
Method: (§1) The human colon adenocarcinoma Caco-2 cell line was provided by Institute of Basic Medicine, Chinese Academy of Medical Sciences (Beijing, China). Caco-2 cells were cultured in a high sugar DMEM medium containing 10% (v/v) fetal bovine serum at 37°C and 5% CO2 incubator. Caco-2 cells (2.5 ×10^5/mL) was inoculated into Transwell polycarbonate membrane 12 well plate. The culture medium was changed every 2 days for the first 14 days, and then every day. After 21 consecutive days, fully differentiated cell monolayers were obtained for drug transport assays.
(§2) Transepithelial electrical resistance (TEER) was used to indicate monolayer integrity. The electrode of the Millcell ERS-2 voltammeter was placed in HBSS solution for 20 min to pre-balance. At the same time, the culture medium was removed from the Transwell culture plate, 0.5 mL of pre-heated HBSS solution was added into the Apical (AP) of transwell, 1.5 mL of pre-heated HBSS solution was added into the Basolateral (BL) of transwell. After that, the transwell was balanced at 37°C for 20 min and then replaced the HBSS solution with the pre-heated HBSS solution, the TEER value was measured finally. Caco-2 cell monolayers with TEER >350 Ω cm^2 which means that the cells have formed a tight monolayer, were used for the experiment. The TEER value was calculated according to the following formula: TEER=TEERT ‐ TEERc×A where TEERT represented the TEER value (Ω) of the measured Transwell chamber with Caco-2 cells, TEERC was the TEER value (Ω) of the transwell chamber in the control group, and A was the membrane area of the transwell cavity (1.12 cm^2 in this experiment).
(§3) In order to evaluate the usability of the Transwell model research, [^3H] Propranolol (0.5 μCi/mL) and [^14C] PEG4000 (1 μCi/mL) served as high-permeability and impermeability controls to verify the uptake direction on Caco-2 cell monolayer, respectively. Rhodamine 123 was used as a positive control for efflux mechanism in bidirectional transport assay on Caco-2 cell monolayer.
(§4) The transmembrane permeability of Deg-AZM (2, 10 or 50 µM) and the potential to inhibit P-gp by Deg-AZM (2, 10 or 50 µM) were evaluated using Caco-2 cell monolayer both apical-to-basolateral (A-B) and basolateral-to-apical (B-A) directions at 37°C for 1 h, the experiments were conducted using quinidine (50 μM) as the inhibitor for P-gp. At the end of incubation, receiver and donor samples were both diluted by assay buffer and analyzed by LC-MS/MS.

P-gp [2] = test system: T2, P-gp; test: as above; type: in vitro ADME, human; conditions: human, Caco-2, with quinidine 50 μM, (+) quinidine 50 μM, 37°C 1 h, n = 3
T2 construct: evaluated using Caco-2 cell monolayer both apical-to-basolateral (A-B) and basolateral-to-apical (B-A) directions; endogenous in cells; host or cells: Caco-2
Method: as §1, §2, §3, §4

[3] = Exposure profiles of Deg-AZM and metabolites in rat plasma, urine, feces and bile (UPLC-QTOF-MS); type: in vivo, rats; conditions: / = not detected
Method: The plasma samples at 0.167 h, 0.5 h, 3 h and 8 h after administration were obtained from the study of tissue distribution in rats ([Gu et al., 2024]). Urine, feces and bile samples at 0–24 h after administration were obtained from the excretion study of a single gavage administration of 25 mg/kg Deg-AZM in rats ([Gu et al., 2024]).
Plasma samples were precipitated with methanol at a ratio of 1:3. Urine samples were diluted with 50% methanol at a ratio of 1:80. The feces was thoroughly ground and sonicated with a 50% methanol at a ratio of 1 g/10 mL to obtain the homogenate, then the homogenate were precipitated with methanol at a ratio of 1:1. Bile samples were precipitated with 50% methanol at a ratio of 1:1. The above obtained samples were vortexed for 1 min and centrifugated at 4°C, 12,000 rpm for 10 min. Finally, the upper layer was analyzed using the UPLC-QTOF-MS system.
The metabolites of Deg-AZM in the plasma, urine, feces and bile samples were identified by UPLC-QTOF-MS system. Liquid chromatography was performed on an ACQUITY UPLC^TM I-Class UPLC unit with a Waters ACQUITY UPLC HSS T3 (100 × 2.1 mm, 1.8 µm). A gradient program was employed with the mobile phase combining solvent A (0.02% formic acid in 5% acetonitrile) and solvent B (acetonitrile) as follows: 100% A (0–0.5 min), 100%–85% A (0.5–7 min), 85%–5% A (7–9 min), 5% A (9–12 min), 5%–100% A (12–15 min). The flow rate was 0.40 mL/min. The column temperature was maintained at 40°C.
A Waters Q-TOF Xevo G2-XS Spectrometer equipped with ESI source under positive ion mode was utilized to conduct mass spectrometry detection, for which the MS^E mode was set at the mass range of 100–1,000 Da. The cone voltage was 40 V. The desolvation temperature was set at 500°C and source temperature was 100°C. The desolvation gas flow rate was 800 L/h and the cone gas flow rate was 50 L/h. In MS^E centroid mode, the MS data were acquired with the low energy function in the trap collision energy (6 eV), and the tandem mass data were acquired with the high energy function in the ramp trap collision energy (35–45 eV).
The extraction ion chromatogram of plasma samples at 0.167 h, 0.5 h, 3 h and 8 h after administration of Deg-AZM in rats was shown in Figure 2. The extraction ion chromatogram of urine, feces and bile samples collected from 0 to 24 h after oral administration of Deg-AZM in rats was shown in Figure 3. The AUC0-t of Deg-AZM and its metabolites in plasma sample were calculated by trapezoidal rule based on the chromatographic peak area. 21 metabolites were found in rat plasma, with M0 (Deg-AZM) and metabolite M2 (demethylated) being the main exposure forms in rat plasma. M0 and M2 accounted for 61.6% and 23.0% of the total related substances in rat plasma, respectively. The relative proportions of Deg-AZM and its metabolites in urine, feces and bile samples were evaluated by the chromatographic peak area, as shown in Figure 4. The detailed proportion of Deg-AZM and its metabolites could be found in Supplementary Table S1. M0 and 28 metabolites were found in the urine of rats. […] M0 and 42 metabolites were found in the feces of rats. Metabolite M1-2 (monohydroxylation, 18.1%) and metabolite M2 (16.6%) were the main forms of fecal excretion of Deg-AZM in rats after oral administration. M0 and 38 metabolites were found in the bile samples of rats. Metabolite M1-2 (monohydroxylation, 19.2%) and metabolite M2 (16.5%) were the main forms of biliary excretion of Deg-AZM in rats after oral administration.

human liver microsomes = test system: human liver microsomes; design: method as in Gu et al., 2024; conditions: ref Gu et al., 2024; cited from earlier work

SMILES: CCC1OC(=O)C(C)C(O)C(C)C(O)C(C)(O)CC(C)CN(C)C(C)C(O)C1(C)O (stereo not drawn) [Deg-AZM, Deglycosylated azithromycin]
- P-gp substrate assessment (P-gp [1]): might be the substrate of intestinal efflux transporter P-gp
- Papp A→B at 1 h, 2 μM (P-gp [2]; 2 μM): 0.823 ± 0.0911 ×10⁻⁶ cm/s
- Papp B→A at 1 h, 2 μM (P-gp [2]; 2 μM): 0.617 ± 0.0488 ×10⁻⁶ cm/s
- Papp A→B at 1 h, 10 μM (P-gp [2]; 10 μM): 0.471 ± 0.0908 ×10⁻⁶ cm/s
- Papp B→A at 1 h, 10 μM (P-gp [2]; 10 μM): 0.52 ± 0.119 ×10⁻⁶ cm/s
- Papp A→B at 1 h, 50 μM (P-gp [2]; 50 μM): 0.589 ± 0.0315 ×10⁻⁶ cm/s
- Papp B→A at 1 h, 50 μM (P-gp [2]; 50 μM): 0.586 ± 0.117 ×10⁻⁶ cm/s
- Proportion in total related substances, Bile ([3]; rat bile 0-24 h, single gavage 25 mg/kg Deg-AZM, by peak area): 7.95%
- Proportion in total related substances, Feces ([3]; rat feces 0-24 h, single gavage 25 mg/kg Deg-AZM, by peak area): 9.12%
- Proportion in total related substances, Plasma ([3]; rat plasma 0.167-8 h after oral Deg-AZM, by AUC0-t of chromatographic peak area): 61.6%
- Proportion in total related substances, Urine ([3]; rat urine 0-24 h, single gavage 25 mg/kg Deg-AZM, by peak area): 62.9%
- T1/2 (human liver microsomes): 46.5 min
